This note sets out measurements from patent US9650420B2, “Peptides for preventing or treating bone diseases and use thereof” (KYUNGPOOK NATIONAL UNIVERSITY INDUSTRY—ACADEMIC COOPERATION …, priority 2015, dated 2017).

Where no end group is shown, it is not given here.

In experiment [1] the test system is adhesion factors (Sdf-1a, Kitl, Angpt1, IL7, Vcam1, Spp1) for hematopoietic stem cells. The experiment can be described thus: Expression level of adhesion factors for hematopoietic stem cells in bone marrow of normal mice (real-time quantitative PCR). It is filed as in vivo, C57BL/6 mice. The following applies: normal mouse, 50 μg/kg intravenous injection to tail, bone marrow harvested after 60 minutes; p<0.05. The procedure: Osteopep1 used herein was produced by PEPTRON. For in vitro experiment, 0 nM Osteopep1 and 10 nM Osteopep1 were diluted in respective media and then injected. Further, for in vivo experiment, three mice per group, fifteen mice in total, were anesthetized with a mixed solution of 100 mg/kg of ketamine and 10 mg/kg of xylazine. Further, the each mouse was administered with 50 μg/kg of Osteopep1 and 100 μl of PBS (Gibco) by intravenous injection to its tail.
(§1) In order to measure expression levels of adhesion factors (Sdf-1a, Kitl, Angpt1, IL7, Vcam1, Spp1) for hematopoietic stem cells present in osteoblasts, a real-time quantitative PCR was used.
An RNeasy Plus mini kit (Qiagen, Korea, Ltd.) was used to extract total RNA from a cell eluent and bone marrow cells. A kit produced by Clontech (Mountain View, Calif.) was used to synthesize cDNA from 5 μg of the total RNA. Further, a Corbett research RG-6000 real-time PCR device was used to perform a real-time quantitative PCR repeatedly for 40 cycles under a condition of 95° C. for 10 minutes; 95° C. for 10 seconds; 58° C. for 15 seconds; and 72° C. for 20 seconds per cycle. […]

The subject of experiment [2] is bone marrow hematopoietic progenitor cells in blood. The experiment is described as follows: Colony-forming unit (CFU) assay: number of bone marrow hematopoietic progenitor cells in blood of normal mice. It is filed as in vivo, C57BL/6 mice. To be noted: normal mouse, 50 μg/kg intravenous injection to tail, blood collected after 60 minutes; p<0.05. The procedure: In order to measure the number of bone marrow hematopoietic progenitor cells in blood of a mouse, CFU assays were conducted. A mouse was anesthetized, and then, 500 μl to 700 μl of blood was collected from the heart into a heparin tube. Then, the collected blood was put into an ammonium chloride solution (Stem Cell Technologies, Inc. 1:10) and then placed in ice for 15 minutes, and red blood cells were removed. The resultant solution was shaken every 2 to 3 minutes to remove red blood cells well, and then, centrifuged for 7 minutes at 1000 rpm. The supernatant was removed, and the resultant solution was washed with IMDM (Gibco) supplied with 2% fetal bovine serum (FBS) (Gibco). The washed cells (3×10^5 per mouse) were divided into three 35 mm dishes (1×10^5 per dish) respectively including methylcellulose-based media (Methocult, Stem cell), and then, cultured for 2 weeks. Then, the number of colonies in the flask was counted. In order to check whether mobilization of bone marrow hematopoietic progenitor cells to blood is induced by a decrease in expression level of the adhesion factors caused by administration of Osteopep1 of the present disclosure, a mouse was administered with 50 μg/kg of Osteopep1 by intravenous injection to its tail, and after 60 minutes, blood was collected from the heart. Then, a CFU (Colony-forming unit) assay was conducted thereto.

Experiment [3] has as its system bone marrow hematopoietic stem cells (Lineage, Sca-1, c-kit). The experiment can be described thus: Flow cytometry (FACs): number of bone marrow hematopoietic stem cells in bone marrow of normal mice. It is filed as in vivo, C57BL/6 mice. To be noted: 50 μg/kg vs PBS, bone marrow harvested after 60 minutes, p<0.05. The procedure:
In order to find out any change in the number of bone marrow hematopoietic stem cells present in bone marrow of mice, Osteopep1 and PBS were injected to normal mice, respectively. After 60 minutes, bone marrow was harvested, and FACs was conducted to the harvested bone marrow by using three kinds of antibodies including Lineage, Sca-1, and c-kit as markers of bone marrow hematopoietic stem cells.
For analyzing bone marrow hematopoietic stem cells, red blood cells were removed from bone marrow, which was harvested from the tibias and the femurs of a 4-week- to 6-week-old C57BL/6 mouse, with an ammonium chloride solution (Stem Cell Technologies, Inc. 1:4) and then, the bone marrow was washed with a PBS (Gibco) solution including 10% fetal bovine serum (FBS) (Gibco) and 1% sodium azide (Sigma-Aldrich) and centrifuged for 10 minutes at 300×g. The hematopoietic cells included in the bone marrow were removed with MACs beads (Miltenyi Biotec) by using a biotinylated lineage antibody (Miltenyi Biotec), and the remaining cells were reacted at 4° C. for 30 minutes by using Sca-1-PECY7, c-kit-APC, CD150-PE, and CD48-FITC antibodies (BD science) and then analyzed with a flow cytometer LSRII (BD science).
Firstly, normal mice were divided into two groups each including 3 mice, and the respective groups were administered with 50 μg/kg of Osteopep1 and 100 μl of PBS (Gibco). […]
A general note: Flow cytometry measures light scatter and fluorescence of single cells or particles in a stream.

Experiment [4] deals with adhesion factors for hematopoietic stem cells present in osteoblasts. The experiment is described as follows: Expression level of adhesion factors in osteoblasts differentiated from BM-MSC (real-time quantitative PCR). Type of experiment: cell-based, C57BL/6 mouse. To be noted: osteoblasts treated with 0 nM and 10 nM for three days, compared with untreated Control; p<0.05.
Excerpt: After a 4-week- to 6-week-old C57BL/6 mouse was anesthetized and sacrificed, the tibias and the femurs were removed. Bone marrow was harvested from the tibias and the femurs, and a single cell suspension was obtained by using a 40 μm cell strainer (Becton-Dickinson LAβware, Franklin Lakes, N.J.). About 10^7 cells were divided in a 75-cm^2 flask including Mesenchymal Stem Cell Stimulatory Supplements (Stem Cell Technologies, Inc.) added with antibiotics and MesenCult™ MSC Basal medium. After being cultured for one week, the cells were cultured for three weeks in StemXVivo Osteogenic/Adipogenic Base Media (R&D systems) added with StemXVivo Osteogenic supplement (20×) and penicillin-streptomycin (100×) for differentiation into osteoblasts. The culture media were replaced every 2 to 3 days.
as §1
An RNeasy Plus mini kit (Qiagen, Korea, Ltd.) was used to extract total RNA from a cell eluent and bone marrow cells. […] Further, a Corbett research RG-6000 real-time PCR device was used to perform a real-time quantitative PCR repeatedly for 40 cycles under a condition of 95° C. for 10 minutes; 95° C. for 10 seconds; 58° C. for 15 seconds; and 72° C. for 20 seconds per cycle. […]

The subject of experiment [5] is adhesion factors (Sdf-1a, Kitl, Angpt1, IL7, Vcam1, Spp1) for hematopoietic stem cells. The experiment can be described thus: Expression of adhesion factors for bone marrow hematopoietic stem cells in osteoporosis model (real-time quantitative PCR). Type of experiment: in vivo, mice. The following applies: osteoporosis (ovariectomy) models, 50 μg/kg intraperitoneally every 12 hours for 3 weeks; p<0.05. The procedure:
(§2) After 1 week, 50 μg/kg of Osteopep1 (PEPTRON) and 100 μl of PBS (Gibco) were intraperitoneally administered every 12 hours twice per day for 3 weeks.
as §1
An RNeasy Plus mini kit (Qiagen, Korea, Ltd.) was used to extract total RNA from a cell eluent and bone marrow cells. A kit produced by Clontech (Mountain View, Calif.) was used to synthesize cDNA from 5 μg of the total RNA. Further, a Corbett research RG-6000 real-time PCR device was used to perform a real-time quantitative PCR repeatedly for 40 cycles under a condition of 95° C. for 10 minutes; 95° C. for 10 seconds; 58° C. for 15 seconds; and 72° C. for 20 seconds per cycle.
After 1 week, 50 μg/kg of Osteopep1 (PEPTRON) and 100 μl of PBS (Gibco) were intraperitoneally administered every 12 hours twice per day for 3 weeks. […] On the 22nd day, the femurs was separated from the mouse and refrigerated in 80% ethanol. Then, a bone density and a trabecular thickness were measured by micro CT. […]

Experiment [6] concerns bone marrow hematopoietic progenitor cells in blood. The experiment can be described thus: CFU assay: mobilization of bone marrow hematopoietic progenitor cells to blood in osteoporosis model. Type of experiment: in vivo, mice. The following applies: osteoporosis (ovariectomy) models, 50 μg/kg intraperitoneally every 12 hours for 3 weeks; p<0.05. The procedure: After 1 week, 50 μg/kg of Osteopep1 (PEPTRON) and 100 μl of PBS (Gibco) were intraperitoneally administered every 12 hours twice per day for 3 weeks. […] In order to measure the number of bone marrow hematopoietic progenitor cells in blood of a mouse, CFU assays were conducted. A mouse was anesthetized, and then, 500 μl to 700 μl of blood was collected from the heart into a heparin tube. Then, the collected blood was put into an ammonium chloride solution (Stem Cell Technologies, Inc. 1:10) and then placed in ice for 15 minutes, and red blood cells were removed. The resultant solution was shaken every 2 to 3 minutes to remove red blood cells well, and then, centrifuged for 7 minutes at 1000 rpm. The supernatant was removed, and the resultant solution was washed with IMDM (Gibco) supplied with 2% fetal bovine serum (FBS) (Gibco). The washed cells (3×10^5 per mouse) were divided into three 35 mm dishes (1×10^5 per dish) respectively including methylcellulose-based media (Methocult, Stem cell), and then, cultured for 2 weeks. Then, the number of colonies in the flask was counted. In order to find out effects of administration of Osteopep1 of the present disclosure on bone marrow hematopoietic progenitor cells mobilized to blood in an osteoporosis model, an experiment was conducted in the same manner as the method of Example 1-4.

In experiment [7] the test system is bone marrow hematopoietic stem cells. The experiment is described as follows: Mobilization of bone marrow hematopoietic stem cells to blood in osteoporosis model, by markers of bone marrow hematopoietic stem cells. It is filed as in vivo, mice. The following applies: osteoporosis (ovariectomy) model, 50 μg/kg intraperitoneally every 12 hours for 3 weeks; p<0.05. The procedure:
FIG. 9 is a diagram illustrating a mobilization level of bone marrow hematopoietic stem cells to blood when Osteopep1 is administered to an osteoporosis model, by using a marker of a bone marrow hematopoietic stem cell.
as §2
In order to check whether mobilization of bone marrow hematopoietic progenitor cells to blood in an osteoporosis model is induced by Osteopep1 of the present disclosure, the following experiment was conducted.

For another experiment, the system named is bone (femurs). The experiment is described as follows: Micro CT of femurs: bone density and trabecular thickness in osteoporosis (ovariectomy) model and control mice. It is filed as in vivo. To be noted: osteoporosis model mouse, 50 μg/kg intraperitoneally twice per day for 3 weeks, compared with PBS; micro CT on 22nd day. The procedure: After 1 week, 50 μg/kg of Osteopep1 (PEPTRON) and 100 μl of PBS (Gibco) were intraperitoneally administered every 12 hours twice per day for 3 weeks. […] The femurs was separated from the mouse and refrigerated in 80% ethanol. Then, for micro CT scanning, a tissue having a thickness of 40 μm was measured with a micro CT scanner (Inveon preclinical CT, Siemens Healthcare, Hoffman Estates, Ill.) under conditions including an exposure time of 600 msec, photon energy of 70 keV, and a current of 400 μA. In order to measure a bone density (bone volume/total volume) and a trabecular thickness, pieces each having a volume of 2.5×0.5×0 5 mm^3 from the same site of each group were measured with Siemens Inveon Software. […] After 1 week, 50 μg/kg of Osteopep1 (PEPTRON) and 100 μl of PBS (Gibco) were intraperitoneally administered every 12 hours twice per day for 3 weeks. […] On the 22nd day, the femurs was separated from the mouse and refrigerated in 80% ethanol. Then, a bone density and a trabecular thickness were measured by micro CT.

Take DNPGEDAPAEDMARY [Osteopep1]: the “expression levels of the main adhesion factors Sdf-1a, Kitl, Angpt1, and Spp1” value in experiment [1] is listed as “decreased”. In addition, the “mobilization of bone marrow hematopoietic progenitor cells to blood (CFU assay)” value in experiment [2] and in experiment [6] was “increased” each time. Besides, the “bone marrow hematopoietic stem cells marked by Lineage, Sca-1, and c-kit in bone marrow (FACs)” value in experiment [3] is given as “decreased”. Besides, the “expression levels of Sdf-1a, Kitl, and Angpt1 in osteoblasts” value in experiment [4] is given as “concentration-dependently decreased”. Further, in experiment [5], the “expression levels of the adhesion factors (Sdf-1a, Kitl, Angpt1, IL7, Vcam1, Spp1) for hematopoietic stem cells” value is listed as “decreased”. Also, in experiment [7], the “mobilized amounts of the markers of bone marrow hematopoietic stem cells” value is reported as “increased”. The “bone density percentage (BV/TV, %)” value in the experiment on bone (femurs) is “increased”. The “trabecular thickness (mm)” value with bone (femurs) is “increased”.
